18 compounds from patent US10259810B2, “N-sulfonylated pyrazolo[3,4-b]pyridin-6-carboxamides and method of use” (AbbVie S.à.r.l., priority 2015, dated 2019) can be followed below.

A word on the EC50: it is the concentration needed to bring the measured effect to its halfway point.

Assay [1] addresses T1, ΔF508-CFTR (Homo sapiens, UniProt P13569, DEL508-508).
T1 construct: host or cells: CFBE41o-, doxycycline-inducible
Description: CFTR cell surface levels using HRP-tagged ΔF508-CFTR expressing CFBE cells, intrinsic corrector capacity. Type of assay: cell-based. Set-up: % Activation: concentration or dose not given beside the values. The conditions noted are these: HRP-tagged ΔF508-CFTR expressing CFBE41o- cells, compound alone (intrinsic corrector capacity), 20 hours at 33° C.; for EC50: read-out: EC50. The method in brief: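 Read-out: chemiluminescent HRP activity of ECL4-HRP-tagged ΔF508-CFTR at the cell surface, 15 min substrate in dark. Normalized as 100×(sample−DMSO)/(positive control−DMSO).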

The target of assay [2] is T1, ΔF508-CFTR. Description: CFTR cell surface levels using HRP-tagged ΔF508-CFTR expressing CFBE cells, in the presence of a co-corrector. Type of assay: cell-based. Conditions: HRP-tagged ΔF508-CFTR CFBE cells, in the presence of 3 μM co-corrector; for EC50: read-out: EC50. The gist of the method:
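Chemiluminescent read-out of surface HRP (15 min, dark) after PBS washes. Activity is normalized as 100×(sample−DMSO)/(3 μM co-corrector alone−DMSO).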

Each structure is given as a SMILES string.

T1 sequence (P13569 with tags, fused parts or gaps DEL508-508): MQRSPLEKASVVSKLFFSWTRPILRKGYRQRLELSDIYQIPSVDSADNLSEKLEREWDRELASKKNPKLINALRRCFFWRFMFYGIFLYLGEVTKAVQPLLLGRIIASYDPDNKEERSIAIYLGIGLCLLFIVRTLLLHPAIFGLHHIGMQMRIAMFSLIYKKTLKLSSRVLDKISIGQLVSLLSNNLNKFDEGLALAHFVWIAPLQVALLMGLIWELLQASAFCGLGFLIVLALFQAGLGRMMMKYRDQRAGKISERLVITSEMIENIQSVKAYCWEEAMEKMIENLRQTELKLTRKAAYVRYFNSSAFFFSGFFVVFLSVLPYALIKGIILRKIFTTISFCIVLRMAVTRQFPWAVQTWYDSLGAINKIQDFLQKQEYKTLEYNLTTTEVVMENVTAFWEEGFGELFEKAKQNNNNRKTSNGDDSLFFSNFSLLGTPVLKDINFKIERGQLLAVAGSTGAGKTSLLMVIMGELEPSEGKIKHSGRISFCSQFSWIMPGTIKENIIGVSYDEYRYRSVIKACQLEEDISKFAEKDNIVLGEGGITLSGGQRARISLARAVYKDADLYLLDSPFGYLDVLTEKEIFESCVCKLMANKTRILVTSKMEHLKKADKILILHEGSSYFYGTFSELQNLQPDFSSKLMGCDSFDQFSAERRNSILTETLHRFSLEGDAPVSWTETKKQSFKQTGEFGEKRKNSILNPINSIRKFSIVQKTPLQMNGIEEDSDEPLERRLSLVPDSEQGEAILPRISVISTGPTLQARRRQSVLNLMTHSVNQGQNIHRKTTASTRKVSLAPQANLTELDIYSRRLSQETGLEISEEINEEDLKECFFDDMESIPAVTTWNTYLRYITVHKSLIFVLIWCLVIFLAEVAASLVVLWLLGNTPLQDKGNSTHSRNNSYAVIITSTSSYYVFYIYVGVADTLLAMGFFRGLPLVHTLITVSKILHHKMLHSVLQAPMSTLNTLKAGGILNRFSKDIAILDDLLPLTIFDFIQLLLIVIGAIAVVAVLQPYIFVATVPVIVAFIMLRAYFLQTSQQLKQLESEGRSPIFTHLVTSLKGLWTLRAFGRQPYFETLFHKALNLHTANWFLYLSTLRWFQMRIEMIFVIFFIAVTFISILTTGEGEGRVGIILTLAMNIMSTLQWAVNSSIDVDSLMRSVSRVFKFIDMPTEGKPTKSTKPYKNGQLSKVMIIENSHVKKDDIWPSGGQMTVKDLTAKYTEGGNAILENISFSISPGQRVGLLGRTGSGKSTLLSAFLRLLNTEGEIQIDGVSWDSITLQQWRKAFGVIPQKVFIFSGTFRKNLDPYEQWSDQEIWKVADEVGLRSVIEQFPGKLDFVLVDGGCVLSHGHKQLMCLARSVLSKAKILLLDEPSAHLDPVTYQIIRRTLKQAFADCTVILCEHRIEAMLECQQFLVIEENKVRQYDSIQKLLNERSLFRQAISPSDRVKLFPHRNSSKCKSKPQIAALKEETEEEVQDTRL

Regarding `CC(C)c1nn(C2CCCCC2)c2nc(C(=O)NS(C)(=O)=O)cc(-c3cnc(N(C)C4CCOCC4)nc3)c12` [Compound 123, 1-cyclohexyl-N-(methanesulfonyl)-4-{2-[methyl(oxan-4-yl)amino]pyrimidin-5-yl}-3-(propan-2-yl)-1H-pyrazolo[3,4-b]pyridine-6-carboxamide], in assay [1], the “% Activation” value was 153.8% and the EC50 amounted to 0.428 µM. In assay [2], the “% Activation” value turned out to be 365.8% and the EC50 was found to be 0.239 µM.
On the same counts, the results for `CC(C)c1nn(-c2cccc(C(F)(F)F)c2)c2nc(C(=O)NS(C)(=O)=O)cc(-c3ccc(N4CCC(C#N)CC4)nc3)c12` [Compound 124, 4-[6-(4-cyanopiperidin-1-yl)pyridin-3-yl]-N-(methanesulfonyl)-3-(propan-2-yl)-1-[3-(trifluoromethyl)phenyl]-1H-pyrazolo[3,4-b]pyridine-6-carboxamide] are 288.1%, 0.545 µM, 447.23% and 0.312 µM.
`CC(C)c1nn(-c2cccc(N(C)C)n2)c2nc(C(=O)NS(C)(=O)=O)cc(-c3ccc(N4CCOCC4)cc3)c12` [Compound 125, 1-[6-(dimethylamino)pyridin-2-yl]-N-(methanesulfonyl)-4-[4-(morpholin-4-yl)phenyl]-3-(propan-2-yl)-1H-pyrazolo[3,4-b]pyridine-6-carboxamide]: in assay [1], the “% Activation” value is 369.87% and the EC50 came out at 0.988 µM. Besides, in assay [2], the “% Activation” value is 520.33% and the EC50 turned out to be 0.463 µM.
For `CC(C)c1nn(-c2cccc(OC(F)(F)F)c2)c2nc(C(=O)NS(C)(=O)=O)cc(-c3ccc(N4CCOCC4)cc3)c12` [Compound 126, N-(methanesulfonyl)-4-[4-(morpholin-4-yl)phenyl]-3-(propan-2-yl)-1-[3-(trifluoromethoxy)phenyl]-1H-pyrazolo[3,4-b]pyridine-6-carboxamide], in assay [1], the “% Activation” value worked out at 309.17% and the EC50 was 0.597 µM. In addition, in assay [2], the “% Activation” value is 487.53% and the EC50 came out at 0.322 µM.
Regarding `CC(C)c1nn(-c2ccc(F)c(F)c2)c2nc(C(=O)NS(C)(=O)=O)cc(-c3ccc(N4CCOCC4)cc3)c12` [Compound 127, 1-(3,4-difluorophenyl)-N-(methanesulfonyl)-4-[4-(morpholin-4-yl)phenyl]-3-(propan-2-yl)-1H-pyrazolo[3,4-b]pyridine-6-carboxamide], in assay [1], the “% Activation” value is 301.45% and the EC50 turned out to be 0.518 µM. In assay [2], the “% Activation” value amounted to 449.1% and the EC50 came out at 0.252 µM.
On the same counts, the results for `COc1cc(F)cc(-n2nc(C)c3c(-c4c(F)cc(OC)cc4F)cc(C(=O)NS(C)(=O)=O)nc32)c1` [Compound 129, 4-(2,6-difluoro-4-methoxyphenyl)-1-(3-fluoro-5-methoxyphenyl)-N-(methanesulfonyl)-3-methyl-1H-pyrazolo[3,4-b]pyridine-6-carboxamide] are 187.5%, 1.33 µM, 307.3% and 0.79 µM.
On the same counts, the results for `CC(C)c1nn(-c2cc(F)cc(F)c2)c2nc(C(=O)NS(C)(=O)=O)cc(-c3ccc(N4CCC(C#N)CC4)cc3)c12` [Compound 130, 4-[4-(4-cyanopiperidin-1-yl)phenyl]-1-(3,5-difluorophenyl)-N-(methanesulfonyl)-3-(propan-2-yl)-1H-pyrazolo[3,4-b]pyridine-6-carboxamide] are 318.25%, 0.541 µM, 496.9% and 0.54 µM.
On to `CC(C)c1nn(-c2cccc(F)c2)c2nc(C(=O)NS(C)(=O)=O)cc(-c3ccc(N4CCC(C#N)CC4)cc3)c12` [Compound 131, 4-[4-(4-cyanopiperidin-1-yl)phenyl]-1-(3-fluorophenyl)-N-(methanesulfonyl)-3-(propan-2-yl)-1H-pyrazolo[3,4-b]pyridine-6-carboxamide], for which, in assay [1], the “% Activation” value came out at 314.35% and the EC50 worked out at 0.43 µM. Besides, in assay [2], the “% Activation” value came to 465.1% and the EC50 was determined as 0.581 µM.
As for `COCCN(C)c1ccc(-c2cc(C(=O)NS(C)(=O)=O)nc3c2c(C(C)C)nn3-c2cccc(C(F)(F)F)c2)cc1` [Compound 132, N-(methanesulfonyl)-4-{4-[(2-methoxyethyl)(methyl)amino]phenyl}-3-(propan-2-yl)-1-[3-(trifluoromethyl)phenyl]-1H-pyrazolo[3,4-b]pyridine-6-carboxamide], in assay [1], the “% Activation” value came out at 244% and the EC50 was found to be 1.27 µM. In addition, in assay [2], the “% Activation” value came out at 417.2% and the EC50 worked out at 0.882 µM.
Regarding `CC(C)c1nn(-c2cccc(C(F)(F)F)c2)c2nc(C(=O)NS(C)(=O)=O)cc(-c3ccc(N(C)C4CCOCC4)nc3)c12` [Compound 133, N-(methanesulfonyl)-4-{6-[methyl(oxan-4-yl)amino]pyridin-3-yl}-3-(propan-2-yl)-1-[3-(trifluoromethyl)phenyl]-1H-pyrazolo[3,4-b]pyridine-6-carboxamide], in assay [1], the “% Activation” value came out at 222.33% and the 50% effective concentration (EC50) is 0.413 µM. In addition, in assay [2], the “% Activation” value worked out at 417.7% and the EC50 turned out to be 0.336 µM.
`CC(C)c1nn(-c2ccc(F)cc2)c2nc(C(=O)NS(C)(=O)=O)cc(-c3cnc(N(C)C4CCOCC4)nc3)c12` [Compound 134, 1-(4-fluorophenyl)-N-(methanesulfonyl)-4-{2-[methyl(oxan-4-yl)amino]pyrimidin-5-yl}-3-(propan-2-yl)-1H-pyrazolo[3,4-b]pyridine-6-carboxamide]: in assay [1], the “% Activation” value was found to be 229.87% and the EC50 turned out to be 0.465 µM. Further, in assay [2], the “% Activation” value is reported as 435.8% and the EC50 was determined as 0.237 µM.
For `CC(C)c1nn(-c2cccc(C(F)(F)F)c2)c2nc(C(=O)NS(C)(=O)=O)cc(-c3ccc(N4CCC(C#N)CC4)cc3)c12` [Compound 135, 4-[4-(4-cyanopiperidin-1-yl)phenyl]-N-(methanesulfonyl)-3-(propan-2-yl)-1-[3-(trifluoromethyl)phenyl]-1H-pyrazolo[3,4-b]pyridine-6-carboxamide] the same measures were 299.63%, 0.696 µM, 512.9% and 0.373 µM.
For `CC1(c2nn(-c3ccccc3)c3nc(C(=O)NS(C)(=O)=O)cc(-c4ccc(N5CCOCC5)cc4)c23)CCC1` [Compound 137, N-(methanesulfonyl)-3-(1-methylcyclobutyl)-4-[4-(morpholin-4-yl)phenyl]-1-phenyl-1H-pyrazolo[3,4-b]pyridine-6-carboxamide], in assay [1], the “% Activation” value is 131.8% and the EC50 is 1.17 µM. Further, in assay [2], the “% Activation” value was 339.7% and the EC50 is 0.638 µM.
On the same counts, the results for `CCS(=O)(=O)NC(=O)c1cc(-c2ccc(N3CCOCC3)cc2)c2c(C3(C)CCC3)nn(-c3ccccc3)c2n1` [Compound 138, N-(ethanesulfonyl)-3-(1-methylcyclobutyl)-4-[4-(morpholin-4-yl)phenyl]-1-phenyl-1H-pyrazolo[3,4-b]pyridine-6-carboxamide] are 252.9%, 0.334 µM, 433.83% and 0.236 µM.
For `CC(C)c1nn(-c2ccc(F)cc2F)c2nc(C(=O)NS(C)(=O)=O)cc(-c3cnc(N4CCC(C#N)CC4)nc3)c12` [Compound 139, 4-[2-(4-cyanopiperidin-1-yl)pyrimidin-5-yl]-1-(2,4-difluorophenyl)-N-(methanesulfonyl)-3-(propan-2-yl)-1H-pyrazolo[3,4-b]pyridine-6-carboxamide] the same measures were 163.83%, 0.806 µM, 335.5% and 0.765 µM.
On the same counts, the results for `CC(C)c1nn(-c2ccc(F)cc2F)c2nc(C(=O)NS(C)(=O)=O)cc(-c3ccc(N4CCC(C#N)CC4)nc3)c12` [Compound 140, 4-[6-(4-cyanopiperidin-1-yl)pyridin-3-yl]-1-(2,4-difluorophenyl)-N-(methanesulfonyl)-3-(propan-2-yl)-1H-pyrazolo[3,4-b]pyridine-6-carboxamide] are 210.3%, 0.734 µM, 377.9% and 0.381 µM.
Consider `CC(C)c1nn(-c2ccc(F)cc2F)c2nc(C(=O)NS(C)(=O)=O)cc(-c3ccc(N4CCC(C#N)CC4)cc3)c12` [Compound 141, 4-[4-(4-cyanopiperidin-1-yl)phenyl]-1-(2,4-difluorophenyl)-N-(methanesulfonyl)-3-(propan-2-yl)-1H-pyrazolo[3,4-b]pyridine-6-carboxamide], for which, in assay [1], the “% Activation” value was found to be 233.07% and the half-maximal effective concentration (EC50) is 0.287 µM. In assay [2], the “% Activation” value is 414.63% and the 50% effective concentration (EC50) came out at 0.221 µM.
On the same counts, the results for `COC1CCN(c2cc(C(=O)NS(=O)(=O)C3CCS(=O)(=O)C3)nc3c2c(C2CCC2)nn3-c2ccccc2)CC1` (stereo not drawn) [Compound 143, 3-cyclobutyl-N-(1,1-dioxo-1λ^6-thiolane-3-sulfonyl)-4-(4-methoxypiperidin-1-yl)-1-phenyl-1H-pyrazolo[3,4-b]pyridine-6-carboxamide] are 107.15%, 1.11 µM, 217.8% and 0.834 µM.
